Where two headings read alike, the source gives them in different places.
Biological target: LRRK2 (Homo sapiens (Human), UniProt Q5S007)
Assay: In Vitro LRRK2 Assay (LabChip 3000, fluorescently-labeled peptide substrate)
Assay type: biochemical
Details: read-out: Ki (μM), affinity values for LRRK2
Description: This assay was used to determine a compound's potency in inhibiting activity of LRRK2 by determining, Kiapp, IC50, or percent inhibition values. In a polypropylene plate, LRRK2, fluorescently-labeled peptide substrate, ATP and test compound were incubated together. Using a LabChip 3000 (Caliper Life Sciences), after the reaction the substrate was separated by capillary electrophoresis into two populations: phosphorylated and unphosphorylated. The relative amounts of each were quantitated by fluorescence intensity. LRRK2 Ki was determined according to the equation: Y=V0*(1−((x+Ki*(1+S/Km)+Et)/(2*Et)−(((x+Ki*(1+S/Km)+Et)^2−(4*Et*x))^0.5)/(2*Et))).
Ki values in Table 4 and elsewhere herein are shown in μM.
Assay conditions and materials used were as follows:
Compound Plate Preparation:
For serial dilutions, 34.6 μl DMSO was added to columns 3-24.
Total and Blank Preparation:
In Complete Reaction Buffer, substrate was diluted to 4 μM. Equal volumes of Complete Reaction Buffer and 4 μM substrate were combined to obtain the blank. Equal volumes of Complete Reaction Buffer and 4 μM substrate were combined and to the combined solution was added 2× final LRRK2 concentration.
To a 50 μl polypropylene plate, 5 μl/well buffer/substrate was added by hand to Blank wells. A Biomek FX was used to start the kinase reaction (“PLK SAR 23 ATP”). The following were added to the appropriate wells: • 2 μl compound+23 μl ATP; • 5 μl/well compound/ATP in Assay Plate; • 5 μl/well kinase/substrate in Assay Plate;
The plate was incubated for 2 hours in the dark. Biomek FX was used to stop the kinase reaction (“PLK Stop”), and 10 μl/well Stop solution was added to the Assay Plate. Results were read on the LabChip 3000.
The LabChip 3000 was run using the job “LRRK2 IC50” with the following job settings: • Pressure: −1.4 psi • Downstream voltage: −500 V • Upstream voltage: −2350 V • Post sample buffer sip time: 75 seconds • Post dye buffer sip time: 75 seconds • Final delay time: 200 seconds Parkinson's Disease Animal Model

[1] = ATP 130 μM, substrate 1 μM, 2 hours, ambient temperature, LRRK2 variant not given

Sequence of LRRK2 (Q5S007 whole entry G2019S): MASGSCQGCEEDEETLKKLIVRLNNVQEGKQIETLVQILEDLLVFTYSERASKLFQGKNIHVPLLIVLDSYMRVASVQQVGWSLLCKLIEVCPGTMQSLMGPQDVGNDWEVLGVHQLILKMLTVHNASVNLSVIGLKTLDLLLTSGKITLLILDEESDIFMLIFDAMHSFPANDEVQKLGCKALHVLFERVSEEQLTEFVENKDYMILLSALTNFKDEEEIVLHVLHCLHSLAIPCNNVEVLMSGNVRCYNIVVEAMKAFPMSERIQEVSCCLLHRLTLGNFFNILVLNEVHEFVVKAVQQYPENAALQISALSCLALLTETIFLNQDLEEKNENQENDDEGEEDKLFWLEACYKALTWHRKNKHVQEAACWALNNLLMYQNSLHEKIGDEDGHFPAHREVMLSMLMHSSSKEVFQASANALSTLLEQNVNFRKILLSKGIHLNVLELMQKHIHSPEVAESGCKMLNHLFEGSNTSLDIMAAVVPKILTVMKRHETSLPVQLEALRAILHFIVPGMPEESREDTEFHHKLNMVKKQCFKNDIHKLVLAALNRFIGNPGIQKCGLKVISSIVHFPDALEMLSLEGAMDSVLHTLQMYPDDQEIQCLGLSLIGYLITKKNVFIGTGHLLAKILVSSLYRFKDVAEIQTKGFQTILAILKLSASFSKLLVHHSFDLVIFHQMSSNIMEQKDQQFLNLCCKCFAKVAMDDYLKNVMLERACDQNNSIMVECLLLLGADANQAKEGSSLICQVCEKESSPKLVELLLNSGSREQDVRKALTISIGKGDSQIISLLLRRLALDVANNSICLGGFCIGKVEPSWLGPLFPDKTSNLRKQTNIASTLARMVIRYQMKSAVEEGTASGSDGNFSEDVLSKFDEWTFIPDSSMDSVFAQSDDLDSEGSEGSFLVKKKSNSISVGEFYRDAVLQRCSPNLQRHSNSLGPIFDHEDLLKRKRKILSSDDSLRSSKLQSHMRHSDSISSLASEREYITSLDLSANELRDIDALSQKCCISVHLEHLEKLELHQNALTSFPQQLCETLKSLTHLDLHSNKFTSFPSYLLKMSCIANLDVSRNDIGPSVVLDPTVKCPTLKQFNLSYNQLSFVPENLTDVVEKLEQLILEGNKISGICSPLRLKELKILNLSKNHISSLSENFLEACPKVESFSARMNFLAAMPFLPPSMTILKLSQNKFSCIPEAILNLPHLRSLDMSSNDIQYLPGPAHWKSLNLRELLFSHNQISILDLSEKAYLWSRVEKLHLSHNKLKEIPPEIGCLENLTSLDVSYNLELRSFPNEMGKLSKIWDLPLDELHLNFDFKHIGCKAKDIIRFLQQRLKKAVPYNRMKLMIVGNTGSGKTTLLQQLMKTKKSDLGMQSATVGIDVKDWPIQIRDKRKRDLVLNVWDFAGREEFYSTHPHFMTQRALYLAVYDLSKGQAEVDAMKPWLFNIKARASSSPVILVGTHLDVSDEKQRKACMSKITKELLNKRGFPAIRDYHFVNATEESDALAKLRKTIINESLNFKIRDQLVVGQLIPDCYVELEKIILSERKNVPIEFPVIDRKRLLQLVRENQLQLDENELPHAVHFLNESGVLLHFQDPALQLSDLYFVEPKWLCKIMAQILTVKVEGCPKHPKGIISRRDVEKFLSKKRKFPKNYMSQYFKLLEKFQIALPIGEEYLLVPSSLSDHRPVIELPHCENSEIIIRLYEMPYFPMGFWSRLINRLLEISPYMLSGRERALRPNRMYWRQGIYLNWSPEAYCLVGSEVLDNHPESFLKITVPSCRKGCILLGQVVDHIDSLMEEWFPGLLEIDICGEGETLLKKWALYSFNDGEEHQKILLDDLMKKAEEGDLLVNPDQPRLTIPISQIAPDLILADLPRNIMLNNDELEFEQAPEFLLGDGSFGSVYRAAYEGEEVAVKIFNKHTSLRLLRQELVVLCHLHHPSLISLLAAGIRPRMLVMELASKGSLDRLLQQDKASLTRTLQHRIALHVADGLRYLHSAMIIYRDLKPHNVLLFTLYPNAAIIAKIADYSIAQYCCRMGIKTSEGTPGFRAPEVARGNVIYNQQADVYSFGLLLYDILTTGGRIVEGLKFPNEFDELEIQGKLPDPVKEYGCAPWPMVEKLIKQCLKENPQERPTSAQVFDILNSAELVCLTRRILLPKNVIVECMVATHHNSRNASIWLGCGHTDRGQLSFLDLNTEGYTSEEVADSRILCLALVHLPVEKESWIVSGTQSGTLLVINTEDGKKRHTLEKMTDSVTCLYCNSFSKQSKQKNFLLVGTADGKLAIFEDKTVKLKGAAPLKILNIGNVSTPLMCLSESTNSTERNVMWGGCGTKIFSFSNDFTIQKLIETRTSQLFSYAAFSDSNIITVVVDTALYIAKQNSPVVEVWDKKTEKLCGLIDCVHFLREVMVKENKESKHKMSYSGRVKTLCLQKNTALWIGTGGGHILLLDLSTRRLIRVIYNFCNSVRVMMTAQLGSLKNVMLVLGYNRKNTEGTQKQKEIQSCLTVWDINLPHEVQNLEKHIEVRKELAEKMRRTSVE

| Ki [1] | Compound | Ki |
| --- | --- | --- |
| 0.045 µM | CC(C)n1cc(-c2n[nH]c3ccnc(OC4CCOCC4)c23)cc1C(=O)N(C)C [Example 66, 1-isopropyl-N,N-dimethyl-4-(4-(tetrahydro-2H-pyran-4-yloxy)-1H-pyrazolo[4,3-c]pyridin-3-yl)-1H-pyrrole-2-carboxamide] |  |
| 0.03 µM | CC(C)n1cc(Nc2[nH]nc3ccnc(OC4CCOCC4)c23)cn1 [Example 164, N-(1-Isopropyl-1H-pyrazol-4-yl)-4-(tetrahydro-2H-pyran-4-yloxy)-1H-pyrazolo[4,3-c]pyridin-3-amine] |  |
| 0.005 µM | c1cc2[nH]nc(-c3cnn([C@@H]4CCOC4)c3)c2c(OC2CCOCC2)n1 [Example 146, (R)-4-(Tetrahydro-2H-pyran-4-yloxy)-3-(1-(tetrahydrofuran-3-yl)-1H-pyrazol-4-yl)-1H-pyrazolo[4,3-c]pyridine] |  |
| 0.007 µM | CC(C)n1cc(-c2n[nH]c3ccnc(OC4CCOC4)c23)cn1 (stereo not shown) [Example 224, 3-(1-Isopropyl-1H-pyrazol-4-yl)-4-(tetrahydro-furan-3-yloxy)-1H-pyrazolo[4,3-c]pyridine] |  |
| 0.026 µM | CC(C)n1cc(-c2n[nH]c3ccnc(OCC(F)(F)F)c23)cn1 [Example 76, 3-(1-Isopropyl-1H-pyrazol-4-yl)-4-(2,2,2-trifluoroethoxy)-1H-pyrazolo[4,3-c]pyridine] |  |
| 0.011 µM | c1cc2[nH]nc(-c3cnn(CC4CCOCC4)c3)c2c(OC2CCOCC2)n1 [Example 93, 3-(1-((Tetrahydro-2H-pyran-4-yl)methyl)-1H-pyrazol-4-yl)-4-(tetrahydro-2H-pyran-4-yloxy)-1H-pyrazolo[4,3-c]pyridine] |  |
| 0.022 µM | COc1cc(-c2n[nH]c3ccnc(OC4CCOCC4)c23)ccn1 [Example 101, 3-(2-Methoxypyridin-4-yl)-4-(tetrahydro-2H-pyran-4-yloxy)-1H-pyrazolo[4,3-c]pyridine] |  |
| 0.323 µM | CC(C)n1cc(-c2n[nH]c3ccnc(OCCN4CCOC4=O)c23)cn1 [Example 182, 3-(2-(3-(1-isopropyl-1H-pyrazol-4-yl)-1H-pyrazolo[4,3-c]pyridin-4-yloxy)ethyl)oxazolidin-2-one] |  |
| 0.006 µM | FC(F)(F)Cn1cc(-c2n[nH]c3ccnc(OC4CCOCC4)c23)cn1 [Example 96, 4-(tetrahydro-2H-pyran-4-yloxy)-3-(1-(2,2,2-trifluoroethyl)-1H-pyrazol-4-yl)-1H-pyrazolo[4,3-c]pyridine] |  |
| 0.005 µM | Cc1cc(-c2n[nH]c3ccnc(OC4CCOCC4)c23)cc(C)n1 [Example 100, 3-(2,6-Dimethylpyridin-4-yl)-4-(tetrahydro-2H-pyran-4-yloxy)-1H-pyrazolo[4,3-c]pyridine] |  |
| 0.013 µM | Cn1ncc2cc(-c3n[nH]c4ccnc(OC5CCOCC5)c34)ccc21 [Example 140, 3-(1-Methyl-1H-indazol-5-yl)-4-(tetrahydro-2H-pyran-4-yloxy)-1H-pyrazolo[4,3-c]pyridine] |  |

Continued, compound first:

| Compound | Ki [1] | Ki |
| --- | --- | --- |
| CN(C)C(=O)c1ccc(-c2cc(-c3n[nH]c4ccnc(OC5CCOCC5)c34)ccn2)cc1 [Example 212, N,N-dimethyl-4-(4-(4-(tetrahydro-2H-pyran-4-yloxy)-1H-pyrazolo[4,3-c]pyridin-3-yl)pyridin-2-yl)benzamide] | 0.009 µM |  |
| c1cc(-c2n[nH]c3ccnc(OC4CCOCC4)c23)cc(N2CCC2)n1 [Example 114, 3-(2-(Azetidin-1-yl)pyridin-4-yl)-4-(tetrahydro-2H-pyran-4-yloxy)-1H-pyrazolo[4,3-c]pyridine] | 0.009 µM |  |
| 3-(1-isopropyl-1H-benzo[d]imidazol-5-yl)-4-(tetrahydro-2H-pyran-4-yloxy)-1H-pyrazolo[4,3-c]pyridine [Example 123] | 0.02 µM |  |
| COc1nccc2[nH]nc(-c3cc(C(=O)N(C)C)n(C(C)C)c3)c12 [Example 61, 1-Isopropyl-4-(4-methoxy-1H-pyrazolo[4,3-c]pyridin-3-yl)-N,N-dimethyl-1H-pyrrole-2-carboxamide] | 0.077 µM |  |
| Cn1cc(/C=C/c2n[nH]c3ccnc(OC4CCCCC4)c23)cn1 [Example 52, 4-(Cyclohexyloxy)-3-[(E)-2-(1-methyl-1H-pyrazol-4-yl)ethenyl]-1H-pyrazolo[4,3-c]pyridine] | 0.0003 µM |  |
| O=C1OCCN1CCOc1nccc2[nH]nc(-c3ccnc(N4CCOCC4)c3)c12 [Example 179, 3-(2-(3-(2-morpholinopyridin-4-yl)-1H-pyrazolo[4,3-c]pyridin-4-yloxy)ethyl)oxazolidin-2-one] | 0.354 µM |  |
| Fc1c(-c2n[nH]c3ccnc(OC4CCOCC4)c23)ccnc1N1CCOCC1 [Example 103, 4-(3-Fluoro-4-(4-(tetrahydro-2H-pyran-4-yloxy)-1H-pyrazolo[4,3-c]pyridin-3-yl)pyridin-2-yl)morpholine] | 0.046 µM |  |
| CC(C)Oc1nccc2[nH]nc(-c3cc(C(=O)NC4COC4)n(C(C)C)c3)c12 [Example 59, 4-(4-Isopropoxy-1H-pyrazolo[4,3-c]pyridin-3-yl)-1-isopropyl-N-(oxetan-3-yl)-1H-pyrrole-2-carboxamide] | 0.0024 µM |  |
| CC(=O)Nc1cccc(-c2cc(-c3n[nH]c4ccnc(OC5CCOCC5)c34)ccn2)c1 [Example 209, N-(3-(4-(4-(tetrahydro-2H-pyran-4-yloxy)-1H-pyrazolo[4,3-c]pyridin-3-yl)pyridin-2-yl)phenyl)acetamide] | 0.01 µM |  |
| O=C(CCc1[nH]nc2ccnc(OC3CCCCC3)c12)N1CCC[C@H](c2ccccc2)C1 [Example 6, 3-[4-(Cyclohexyloxy)-1H-pyrazolo[4,3-c]pyridin-3-yl]-1-[(3R)-3-phenylpiperidin-1-yl]propan-1-one] | 0.014 µM |  |
| N#Cc1cccc(-c2cc(-c3n[nH]c4ccnc(OC5CCOCC5)c34)ccn2)c1 [Example 201, 3-(4-(4-(tetrahydro-2H-pyran-4-yloxy)-1H-pyrazolo[4,3-c]pyridin-3-yl)pyridin-2-yl) benzonitrile] | 0.009 µM |  |
| COCCOc1nccc2[nH]nc(-c3ccnc(N4CCOCC4)c3)c12 [Example 178, 4-(4-(4-(2-methoxyethoxy)-1H-pyrazolo[4,3-c]pyridin-3-yl)pyridin-2-yl) morpholine] | 0.023 µM |  |
| CC(C)Oc1nccc2[nH]nc(-c3cc(C(=O)N4CCOCC4)n(C(C)C)c3)c12 [Example 57, (4-(4-Isopropoxy-1H-pyrazolo[4,3-c]pyridin-3-yl)-1-isopropyl-1H-pyrrol-2-yl)(morpholino)methanone] | 0.019 µM |  |
| N#Cc1ccc(-c2cc(-c3n[nH]c4ccnc(OC5CCOCC5)c34)ccn2)cc1 [Example 202, 4-(4-(4-(tetrahydro-2H-pyran-4-yloxy)-1H-pyrazolo[4,3-c]pyridin-3-yl)pyridin-2-yl) benzonitrile] | 0.025 µM |  |
| c1cc(-c2n[nH]c3ccnc(OC4CCOCC4)c23)cc(-c2cn[nH]c2)n1 [Example 204, 3-(2-(1H-pyrazol-4-yl)pyridin-4-yl)-4-(tetrahydro-2H-pyran-4-yloxy)-1H-pyrazolo[4,3-c]pyridine] | 0.012 µM |  |
| 3-(1-(Oxetan-3-yl)-1H-benzo[d]imidazol-6-yl)-4-(tetrahydro-2H-pyran-4-yloxy)-1H-pyrazolo[4,3-c]pyridine [Example 124] |  | 0.019 µM |
| COC(=O)c1[nH]nc2ccnc(NC3CCOCC3)c12 [Example 185, methyl 4-(tetrahydro-2H-pyran-4-ylamino)-1H-pyrazolo[4,3-c]pyridine-3-carboxylate] | 0.1 µM |  |
| c1cc2[nH]nc(-c3ccc4ncn(C5CCOC5)c4c3)c2c(OC2CCOCC2)n1 (stereo not shown) [Example 128, 4-(Tetrahydro-2H-pyran-4-yloxy)-3-(1-(tetrahydrofuran-3-yl)-1H-benzo[d]imidazol-6-yl)-1H-pyrazolo[4,3-c]pyridine] | 0.034 µM |  |
| c1cc(CN2CCOCC2)cc(-c2[nH]nc3ccnc(OC4CCOCC4)c23)c1 [Example 161, 4-(3-(4-(Tetrahydro-2H-pyran-4-yloxy)-1H-pyrazolo[4,3-c]pyridin-3-yl)benzyl)morpholine] | 0.107 µM |  |
| CC1CCCN(C(=O)CCc2[nH]nc3ccnc(NC4CCOCC4)c23)C1 (stereo in doubt) [Example 2, 1-[(3R)-3-methylpiperidin-1-yl]-3-[4-(tetrahydro-2H-pyran-4-ylamino)-1H-pyrazolo-[4,3-c]pyridin-3-yl]propan-1-one] | 0.034 µM |  |
| c1coc(-c2n[nH]c3ccnc(OC4CCOCC4)c23)c1 [Example 37, 3-(Furan-2-yl)-4-(tetrahydro-2H-pyran-4-yloxy)-1H-pyrazolo[4,3-c]pyridine] | 0.132 µM |  |
| c1cc2[nH]nc(-c3ccc4nc[nH]c4c3)c2c(OC2CCOCC2)n1 [Example 139, 3-(1H-Benzo[d]imidazol-6-yl)-4-(tetrahydro-2H-pyran-4-yloxy)-1H-pyrazolo[4,3-c]pyridine] | 0.014 µM |  |
| c1cc2[nH]nc(-c3cnn(CC4CCC4)c3)c2c(OC2CCCCC2)n1 [Example 41, 3-[1-(Cyclobutylmethyl)-1H-pyrazol-4-yl]-4-(cyclohexyloxy)-1H-pyrazolo[4,3-c]pyridine] | 0.055 µM |  |
